Assay results: US9376396B2, “Acylaminocycloalkyl compounds suitable for treating disorders that respond to modulation of dopamine D3 receptor” (AbbVie Deutschland GmbH & Co. KG, priority 2012, dated 2016)

What was measured:
[1] = target: T1, human dopamine D2L receptors (long isoform) (Homo sapiens, UniProt P14416); experiment: Receptor binding study, dopamine D2L receptor ([125I]iodospiperone displacement), selectivity vs D3; details: selectivity ratio, HEK-293 membranes
T1 construct: expressed in transfected cells; host or cells: HEK-293
T1 sequence (P14416 whole entry, canonical isoform): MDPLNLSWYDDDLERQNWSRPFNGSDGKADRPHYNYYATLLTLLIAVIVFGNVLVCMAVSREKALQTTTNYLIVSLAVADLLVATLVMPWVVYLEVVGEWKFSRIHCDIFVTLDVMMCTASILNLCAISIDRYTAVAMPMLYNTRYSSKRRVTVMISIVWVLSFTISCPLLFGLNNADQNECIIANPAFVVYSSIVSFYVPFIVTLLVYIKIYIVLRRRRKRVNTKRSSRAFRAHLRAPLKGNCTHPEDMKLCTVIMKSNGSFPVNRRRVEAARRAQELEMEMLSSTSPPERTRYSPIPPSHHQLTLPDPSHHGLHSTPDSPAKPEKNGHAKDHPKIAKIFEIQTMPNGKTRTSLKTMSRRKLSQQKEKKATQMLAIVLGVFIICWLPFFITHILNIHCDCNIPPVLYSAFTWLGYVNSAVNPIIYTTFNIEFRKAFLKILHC
In short: (§1)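 Competitive radioligand binding at 25 °C for 60 min in triplicate, in Tris buffer with NaCl, KCl, CaCl2, MgCl2 and 0.1% BSA at pH 7.4. One buffer also held 10 μM quinolone and 0.1% ascorbic acid. Bound radioactivity was collected on GF/B filters and counted by liquid scintillation.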

[2] = Determination of the microsomal half-life / microsomal clearance, rat; format: in vitro ADME; details: rat liver microsomes, 0.5 μM test substance, 0.25 mg microsomal protein/ml, NADPH, 37° C.
[3] = target: T2, human dopamine D3 receptors (Homo sapiens, UniProt P35462); experiment: Receptor binding study, dopamine D3 receptor ([125I]-iodosulpride displacement); details: membranes of HEK-293 cells, 0.1 nM [125I]-iodosulpride, 25° C., 60 minutes
T2 construct: expressed in transfected cells; host or cells: HEK-293
T2 sequence (P35462 whole entry): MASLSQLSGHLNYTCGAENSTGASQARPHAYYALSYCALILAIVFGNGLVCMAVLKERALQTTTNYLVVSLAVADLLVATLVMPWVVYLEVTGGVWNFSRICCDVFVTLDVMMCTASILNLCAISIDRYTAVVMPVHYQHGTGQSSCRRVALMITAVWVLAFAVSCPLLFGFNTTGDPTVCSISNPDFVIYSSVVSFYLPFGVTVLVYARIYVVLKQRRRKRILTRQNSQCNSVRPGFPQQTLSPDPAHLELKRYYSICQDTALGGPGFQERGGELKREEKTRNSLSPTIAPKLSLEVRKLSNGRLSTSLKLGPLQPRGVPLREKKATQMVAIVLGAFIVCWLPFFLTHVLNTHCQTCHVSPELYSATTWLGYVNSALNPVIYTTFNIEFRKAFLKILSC
In short: as §1

hERG cardiac K+ channel = target: T3, hERG cardiac K+ channel (Homo sapiens, UniProt Q12809); experiment: Blocking the hERG channel ([3H]dofetilide displacement); format: binding; details: membrane homogenate from HEK 293 cells expressing hERG
T3 construct: expressed in transfected cells; host or cells: HEK-293
T3 sequence (Q12809 whole entry): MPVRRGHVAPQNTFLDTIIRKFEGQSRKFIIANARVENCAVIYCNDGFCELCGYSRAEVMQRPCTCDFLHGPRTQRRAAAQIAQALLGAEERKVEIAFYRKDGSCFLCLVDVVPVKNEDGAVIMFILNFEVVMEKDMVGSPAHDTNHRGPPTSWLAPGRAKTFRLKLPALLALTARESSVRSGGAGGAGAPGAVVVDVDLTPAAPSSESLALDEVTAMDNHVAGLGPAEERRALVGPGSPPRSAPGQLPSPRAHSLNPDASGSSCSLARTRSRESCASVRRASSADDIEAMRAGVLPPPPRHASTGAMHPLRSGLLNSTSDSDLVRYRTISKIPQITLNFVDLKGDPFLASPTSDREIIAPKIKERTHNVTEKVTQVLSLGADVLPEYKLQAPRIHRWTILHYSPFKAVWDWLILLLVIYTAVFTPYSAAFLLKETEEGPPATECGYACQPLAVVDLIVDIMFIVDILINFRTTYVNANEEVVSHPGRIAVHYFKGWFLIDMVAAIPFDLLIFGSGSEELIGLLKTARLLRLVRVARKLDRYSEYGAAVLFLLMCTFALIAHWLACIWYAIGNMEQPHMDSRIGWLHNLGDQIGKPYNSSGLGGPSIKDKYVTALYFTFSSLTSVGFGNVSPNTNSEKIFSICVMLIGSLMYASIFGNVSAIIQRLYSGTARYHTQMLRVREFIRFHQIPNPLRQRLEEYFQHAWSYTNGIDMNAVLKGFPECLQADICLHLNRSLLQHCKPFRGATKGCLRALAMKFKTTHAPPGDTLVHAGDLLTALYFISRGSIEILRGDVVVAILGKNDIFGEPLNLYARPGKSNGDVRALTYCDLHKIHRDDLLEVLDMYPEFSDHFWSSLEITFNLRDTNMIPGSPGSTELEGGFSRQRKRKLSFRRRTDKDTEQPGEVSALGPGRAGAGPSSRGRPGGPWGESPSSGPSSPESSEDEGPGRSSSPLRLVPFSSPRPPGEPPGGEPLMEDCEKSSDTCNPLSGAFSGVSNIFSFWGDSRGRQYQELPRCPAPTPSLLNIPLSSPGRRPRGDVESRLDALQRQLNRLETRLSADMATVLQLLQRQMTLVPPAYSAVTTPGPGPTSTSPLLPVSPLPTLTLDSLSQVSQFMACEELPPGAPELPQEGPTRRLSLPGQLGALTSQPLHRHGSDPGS
Experimental: The binding affinity of test drugs for the hERG cardiac K^+ channel was determined by their ability to displace tritiated dofetilide (a class III antiarrhythmic drug and potent hERG blocker) in membrane homogenates from HEK-293 cells heterogeneously expressing the hERG channel. The assay was performed as previously described G. J. Diaz et al., Journal of Pharmacological and Toxicological Methods, 50 (2004), 187-199). For this, drug dilutions were prepared from 10 mM DMSO stocks and the following were added to a 96-well polystyrene plate (Perkin-Elmer Optiplate): 20 μl of assay binding buffer (for total bounds), or 1 μM astemizole (for non-specific bounds), or test drug, 50 μl of [^3H]dofetilide (20 nM, ˜80 Ci/mmol specific activity), and 130 μl of membrane homogenate from HEK 293 cells stably transfected with hERG K^+ channels (final protein concentration of 30 μg per well). The plates were incubated at ambient temperature for 45 min, aspirated onto GF/B filter plates (Perkin-Elmer), and washed with 2 ml of cold wash buffer. After allowing the plates to dry, 50 μl of scintillant (Perkin-Elmer MicroScint 20) were added to each well and the radioactivity was counted in a Perkin-Elmer Topcount NXT scintillation counter. IC50 determinations were calculated from competition curves using 6 drug concentrations, half-log apart, starting at a high concentration of 100 μM (final assay DMSO concentration=1%) using a four-parameter logistic equation. The results are given as IC50 value.

[4] = Determination of the microsomal half-life / microsomal clearance, human; format: in vitro ADME; details: human liver microsomes, 0.5 μM test substance, 0.25 mg microsomal protein/ml, NADPH, 37° C.

CC(=O)N[C@H]1CC[C@H](CCN2CCN(c3cc(CCO)nc(C(C)(C)C)n3)CC2)CC1 [Compound 13, trans-N-[4-(2-{4-[2-tert-Butyl-6-(2-hydroxy-ethyl)-pyrimidin-4-yl]-piperazin-1-yl}-ethyl)-cyclohexyl]-acetamide]
D2/D3 (Ki (D2L)/Ki (D3)) [1]: +++ (+++>50) | Rat mCl [2]: + (+: 20-120 μl min^−1 mg^−1) | Ki [3]: < 10 nM | IC50 (hERG cardiac K+ channel): > 10 µM | Human mCl [4]: + (+: 20-120 μl min^−1 mg^−1)

COCc1cc(N2CCN(CC[C@H]3CC[C@H](NC(C)=O)CC3)CC2)nc(C(C)(C)C)n1 [Compound 2, trans-N-[4-(2-{4-[2-tert-butyl-6-(methoxymethyl)-pyrimidin-4-yl]-piperazin-1-yl}-ethyl)-cyclohexyl]-acetamide]
D2/D3 (Ki (D2L)/Ki (D3)) [1]: +++ (+++>50) | Rat mCl [2]: + (+: 20-120 μl min^−1 mg^−1) | Ki [3]: < 10 nM | IC50 (hERG cardiac K+ channel): > 10 µM | Human mCl [4]: + (+: 20-120 μl min^−1 mg^−1)
